Measurements reported in PubChem BioAssay AID1963844 (Molecular Pharmacology Branch, DTP, NCI, 2024).

Test system: 422866-222-R5-J1-PDC complex spheroid viability
Assay: Anticancer human tumor 422866-222-R5-J1-PDC patient-derived pancreatic adenocarcinoma cell line growth inhibition [POLQ]
Conditions: for IC50: curve of first compound; for viability, T/C: stronger effect = lower value
Method in brief: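 Complex spheroid viability model combining PDC tumour cells with endothelial (HUVEC) and MSC stromal cells. Novobiocin, ART-558 or RP6685 were tested singly and in combination with standard and investigational anticancer drugs. Each was titrated in half-log steps from near clinical Cmax, or from 10 microM where Cmax was unknown.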

[1] = second compound 0.0316 µM, first compound 0.00316 µM
[2] = second compound 0.0316 µM, first compound 0.01 µM
[3] = second compound 0.0316 µM, first compound 0.0316 µM
[4] = second compound 0.0316 µM, first compound 0.1 µM
[5] = second compound 0.0316 µM, first compound 0.316 µM
[6] = second compound 0.0316 µM, first compound 1 µM
[7] = second compound 0.1 µM, first compound 0.00316 µM
[8] = second compound 0.1 µM, first compound 0.01 µM
[9] = second compound 0.1 µM, first compound 0.0316 µM
[10] = second compound 0.1 µM, first compound 0.1 µM
[11] = second compound 0.1 µM, first compound 0.316 µM
[12] = second compound 0.1 µM, first compound 1 µM
[13] = second compound 0.316 µM, first compound 0.00316 µM
[14] = second compound 0.316 µM, first compound 0.01 µM
[15] = second compound 0.316 µM, first compound 0.0316 µM
[16] = second compound 0.316 µM, first compound 0.1 µM
[17] = second compound 0.316 µM, first compound 0.316 µM
[18] = second compound 0.316 µM, first compound 1 µM
[19] = second compound 1 µM, first compound 0.00316 µM
[20] = second compound 1 µM, first compound 0.01 µM
[21] = second compound 1 µM, first compound 0.0316 µM
[22] = second compound 1 µM, first compound 0.1 µM
[23] = second compound 1 µM, first compound 0.316 µM
[24] = second compound 1 µM, first compound 1 µM
[25] = second compound 3.16 µM, first compound 0.00316 µM
[26] = second compound 3.16 µM, first compound 0.01 µM
[27] = second compound 3.16 µM, first compound 0.0316 µM
[28] = second compound 3.16 µM, first compound 0.1 µM
[29] = second compound 3.16 µM, first compound 0.316 µM
[30] = second compound 3.16 µM, first compound 1 µM
[31] = second compound 10 µM, first compound 0.00316 µM
[32] = second compound 10 µM, first compound 0.01 µM
[33] = second compound 10 µM, first compound 0.0316 µM
[34] = second compound 10 µM, first compound 0.1 µM
[35] = second compound 10 µM, first compound 0.316 µM
[36] = second compound 10 µM, first compound 1 µM
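Note: spheroids exposed to compounds for one week before readout.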
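Throughout, for viability, T/C: percent of DMSO vehicle wells luminescence so 100% = untreated viability.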

C=CCn1c(=O)c2cnc(Nc3ccc(N4CCN(C)CC4)cc3)nc2n1-c1cccc(C(C)(C)O)n1 + COC1C(OC(N)=O)C(O)C(Oc2ccc3c(O)c(NC(=O)c4ccc(O)c(CC=C(C)C)c4)c(=O)oc3c2C)OC1(C)C
IC50 (second compound 0.0316 µM): 418 nM
IC50 (second compound 0.1 µM): 304 nM
IC50 (second compound 0.316 µM): 493 nM
IC50 (second compound 1 µM): 471 nM
IC50 (second compound 3.16 µM): 538 nM
IC50 (second compound 10 µM): 356 nM
viability, T/C [1]: 91.1%
viability, T/C [2]: 106%
viability, T/C [3]: 96.3%
viability, T/C [4]: 93.2%
viability, T/C [5]: 54.3%
viability, T/C [6]: 36.6%
viability, T/C [7]: 98.8%
viability, T/C [8]: 105%
viability, T/C [9]: 86.2%
viability, T/C [10]: 79.4%
viability, T/C [11]: 46.5%
viability, T/C [12]: 34.5%
viability, T/C [13]: 97.4%
viability, T/C [14]: 101%
viability, T/C [15]: 103%
viability, T/C [16]: 84.4%
viability, T/C [17]: 59.1%
viability, T/C [18]: 36.6%
viability, T/C [19]: 94.8%
viability, T/C [20]: 105%
viability, T/C [21]: 93.8%
viability, T/C [22]: 89.5%
viability, T/C [23]: 58%
viability, T/C [24]: 34.6%
viability, T/C [25]: 96.7%
viability, T/C [26]: 100%
viability, T/C [27]: 91.5%
viability, T/C [28]: 79%
viability, T/C [29]: 59.1%
viability, T/C [30]: 39.7%
viability, T/C [31]: 95.7%
viability, T/C [32]: 84.3%
viability, T/C [33]: 98.2%
viability, T/C [34]: 79.9%
viability, T/C [35]: 51.9%
viability, T/C [36]: 38.9%

CCCS(=O)(=O)Nc1ccc(F)c(C(=O)c2c[nH]c3ncc(-c4ccc(Cl)cc4)cc23)c1F + COC1C(OC(N)=O)C(O)C(Oc2ccc3c(O)c(NC(=O)c4ccc(O)c(CC=C(C)C)c4)c(=O)oc3c2C)OC1(C)C
IC50 (second compound 0.0316 µM): > 10000 nM
IC50 (second compound 0.1 µM): > 10000 nM
IC50 (second compound 0.316 µM): > 10000 nM
IC50 (second compound 1 µM): > 10000 nM
IC50 (second compound 3.16 µM): > 10000 nM
IC50 (second compound 10 µM): > 10000 nM
viability, T/C [3]: 96.1%
viability, T/C [4]: 129%
viability, T/C [5]: 132%
viability, T/C [6]: 162%
viability, T/C (second compound 0.0316 µM, first compound 3.16 µM): 236%
viability, T/C (second compound 0.0316 µM, first compound 10 µM): 99%
viability, T/C [9]: 119%
viability, T/C [10]: 118%
viability, T/C [11]: 143%
viability, T/C [12]: 149%
viability, T/C (second compound 0.1 µM, first compound 3.16 µM): 198%
viability, T/C (second compound 0.1 µM, first compound 10 µM): 86.6%
viability, T/C [15]: 98.2%
viability, T/C [16]: 97.8%
viability, T/C [17]: 129%
viability, T/C [18]: 177%
viability, T/C (second compound 0.316 µM, first compound 3.16 µM): 173%
viability, T/C (second compound 0.316 µM, first compound 10 µM): 107%
viability, T/C [21]: 101%
viability, T/C [22]: 114%
viability, T/C [23]: 129%
viability, T/C [24]: 167%
viability, T/C (second compound 1 µM, first compound 3.16 µM): 217%
viability, T/C (second compound 1 µM, first compound 10 µM): 90.6%
viability, T/C [27]: 101%
viability, T/C [28]: 115%
viability, T/C [29]: 129%
viability, T/C [30]: 173%
viability, T/C (second compound 3.16 µM, first compound 3.16 µM): 195%
viability, T/C (second compound 3.16 µM, first compound 10 µM): 111%
viability, T/C [33]: 93.9%
viability, T/C [34]: 121%
viability, T/C [35]: 145%
viability, T/C [36]: 161%
viability, T/C (second compound 10 µM, first compound 3.16 µM): 198%
viability, T/C (second compound 10 µM, first compound 10 µM): 93.4%

CCc1c2c(nc3ccc(O)cc13)-c1cc3c(c(=O)n1C2)COC(=O)[C@]3(O)CC + COC1C(OC(N)=O)C(O)C(Oc2ccc3c(O)c(NC(=O)c4ccc(O)c(CC=C(C)C)c4)c(=O)oc3c2C)OC1(C)C
IC50 (second compound 0.0316 µM): < 3.16 nM
IC50 (second compound 0.1 µM): < 3.16 nM
IC50 (second compound 0.316 µM): < 3.16 nM
IC50 (second compound 1 µM): < 3.16 nM
IC50 (second compound 3.16 µM): < 3.16 nM
IC50 (second compound 10 µM): < 3.16 nM
viability, T/C [1]: 44.1%
viability, T/C [2]: 34.4%
viability, T/C [3]: 33.4%
viability, T/C [4]: 30.8%
viability, T/C [5]: 28.7%
viability, T/C [6]: 19.7%
viability, T/C [7]: 41.3%
viability, T/C [8]: 34.8%
viability, T/C [9]: 32%
viability, T/C [10]: 30.6%
viability, T/C [11]: 34.6%
viability, T/C [12]: 18.6%
viability, T/C [13]: 41.1%
viability, T/C [14]: 35.9%
viability, T/C [15]: 30.9%
viability, T/C [16]: 29.6%
viability, T/C [17]: 32.9%
viability, T/C [18]: 16.7%
viability, T/C [19]: 41.8%
viability, T/C [20]: 30.9%
viability, T/C [21]: 30.5%
viability, T/C [22]: 33.8%
viability, T/C [23]: 32.6%
viability, T/C [24]: 19%
viability, T/C [25]: 41%
viability, T/C [26]: 34.8%
viability, T/C [27]: 36%
viability, T/C [28]: 32.7%
viability, T/C [29]: 34.3%
viability, T/C [30]: 22.5%
viability, T/C [31]: 39.4%
viability, T/C [32]: 34.2%
viability, T/C [33]: 31.6%
viability, T/C [34]: 32.1%
viability, T/C [35]: 31.1%
viability, T/C [36]: 19.9%
